According to PubChem BioAssay (NCI):
Values joined by “and” are separate entries in the source; they are usually repeats but may differ in a detail not shown here. Equal values may be shown once.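 Step 1: Grow cells in 96-well plates. Step 2: Expose to compound for 48 hours at 5 concentrations. Step 3: Interpolate endpoints linearly; if unreached, use highest concentration. The concentration for 50% growth inhibition is given as GI50. At the TGI there is no net growth.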

Assays:
Assay in all cases: NCI tumour cell line growth inhibition, 48 h
[1] = test system: HS 578T breast
[2] = test system: HT29 colon
[3] = test system: IGROV1 ovarian
[4] = test system: M14 melanoma
[5] = test system: MDA-MB-231 breast
[6] = test system: MDA-MB-435
[7] = test system: OVCAR-3 ovarian
[8] = test system: OVCAR-4 ovarian
[9] = test system: RPMI-8226 leukemia
[10] = test system: TK-10 renal

SMILES	GI50 [1]	TGI [1]	GI50 [2]	TGI [2]	GI50 [3]	TGI [3]	GI50 [4] [µM]	TGI [4]	GI50 [5] [µM]	TGI [5] [µM]	GI50 [6] [µM]	TGI [6] [µM]	GI50 [7]	TGI [7]	GI50 [8]	TGI [8]	GI50 [9]	TGI [9]	GI50 [10]	TGI [10]
COc1cc2c3c(n(CCCCOC(=O)C(Cl)(Cl)Cl)c(=O)c2cc1OC)-c1cc2c(cc1C3=O)OCO2	94.7 µM	> 100 µM	> 100 µM	> 100 µM	14.4 µM	> 100 µM	24.3	71.9 µM	50.3	> 100	> 100	> 100	> 100 µM	> 100 µM	> 100 µM	> 100 µM	> 100 µM	> 100 µM	> 100 µM	> 100 µM
CON(C)C(=O)N1N=C(c2cc(F)ccc2F)SC1(CCCN)c1ccccc1 (stereo unspecified)	0.0555 µM and < 0.01 µM	17.4 µM and 21.8 µM	0.0301 µM and < 0.01 µM	5.05 µM and 10.8 µM	6.28 µM and 4.85 µM	32.2 µM and 27.5 µM	< 0.01	11.2 µM and 4.38 µM	< 0.01	0.039	< 0.01	< 0.01	0.0298 µM and < 0.01 µM	12.4 µM and 12.2 µM	4.27 µM and 3.37 µM	24.9 µM and 24.8 µM	0.0131 µM and < 0.01 µM	11 µM and 9.04 µM	3.19 µM and 2.33 µM	18.8 µM and 17.7 µM
O=C(/C=C\n1cnc(-c2cc(C(F)(F)F)cc(C(F)(F)F)c2)n1)NNc1cnccn1	0.231 µM	25.7 µM	0.131 µM	22.4 µM	0.223 µM	14.8 µM	0.311	9.04 µM	0.0577	14.8	0.0533	1.24	0.0574 µM	4.03 µM	0.0364 µM	14 µM	0.0449 µM	> 47.3 µM	0.466 µM	16.5 µM
CCCCCN(CCCCC)CC(O)c1ccc(Cl)c2ccccc12 (stereo unspecified)	10.8 µM	33.9 µM	2.24 µM	20.6 µM	4.92 µM	24.3 µM	4.51	18.7 µM	10.8	26.4	6.43	45	12.4 µM	26.5 µM	12.2 µM	72.5 µM	6.43 µM	27.6 µM	15.5 µM	33.9 µM
O=C1OC(c2ccco2)=N/C1=C\c1cccc([N+](=O)[O-])c1	–	> 100 µM	–	> 100 µM	–	> 100 µM	–	> 100 µM	–	> 100	–	> 100	–	> 100 µM	–	> 100 µM	–	> 100 µM	–	> 100 µM
Cc1ccc2[nH]c(C(=O)NN3C(=O)C(C)SC34CCCC(C)C4)c(-c3ccccc3)c2c1 (stereo unspecified)	87.8 µM	> 100 µM	33.9 µM	> 100 µM	59.1 µM	> 100 µM	> 100	> 100 µM	> 100	> 100	> 100	> 100	97.3 µM	> 100 µM	50 µM	> 100 µM	53.1 µM	> 100 µM	89.4 µM	> 100 µM
O=c1[nH]c(=O)n(C2OC(CO)C(O)C(O)C2O)cc1F (stereo unspecified)	–	> 100 µM	–	> 100 µM	–	> 100 µM	–	> 100 µM	–	> 100	–	> 100	–	> 100 µM	–	> 100 µM	–	> 100 µM	–	> 100 µM
COc1ccc(-n2cc(-c3cc(OC)c(OC)c(OC)c3)[nH]c2=O)cc1Cl	34.9 µM	> 100 µM	> 100 µM	> 100 µM	> 100 µM	> 100 µM	> 100	> 100 µM	34.9	> 100	> 100	> 100	> 100 µM	> 100 µM	> 100 µM	> 100 µM	> 100 µM	> 100 µM	55.2 µM	> 100 µM
c1cc2c(ncc3cscc32)s1	–	> 100 µM	–	> 100 µM	–	> 31.6 µM	–	> 100 µM	–	> 100	–	> 100	–	> 100 µM	–	> 100 µM	–	> 100 µM	–	> 100 µM
COc1cc2c(c(OC)c1OC)-c1c(cc3c(c1OC)OCO3)C1OC2C(C)C1C (stereo unspecified) (tested in a mixture with another compound)	–	> 100 µM	–	> 100 µM	–	> 100 µM	–	> 100 µM	–	> 100	–	> 100	–	> 100 µM	–	> 100 µM	–	> 100 µM	–	> 100 µM
COC(=O)[C@H](Cc1c[nH]c2ccccc12)NC(=O)[C@@H](OC)[C@@H]1Cc2cc3cc(OC4CC(OC5CC(O)C(O)C(C)O5)C(O)C(C)O4)c(C)c(O)c3c(O)c2C(=O)[C@H]1OC1CC(OC2CC(OC3CC(C)(O)C(O)C(C)O3)C(O)C(C)O2)C(O)C(C)O1 (stereo partly specified)	0.00566 µM	0.157 µM	0.00611 µM	–	0.00743 µM	> 7.79 µM	0.0169	0.127 µM	0.00975	0.603	0.00784	0.0394	0.00701 µM	0.112 µM	0.0125 µM	> 16.5 µM	0.00557 µM	0.0607 µM	0.0651 µM	> 6.46 µM
O=C(/C(=C/c1cccc([N+](=O)[O-])c1)c1ccccc1)c1ccccc1	3.89 µM	> 100 µM	3.24 µM	8.83 µM	3.38 µM	27.8 µM	3.45	18.9 µM	4.01	> 100	1.96	4.43	3.66 µM	10.9 µM	4.26 µM	16 µM	2.34 µM	7.68 µM	4.19 µM	21.4 µM
COc1ccc(-c2nnc(COc3ccc(NC(=O)Nc4ccc(Cl)c(C(F)(F)F)c4)cc3F)o2)cc1	3.26 µM	18.1 µM	3.57 µM	22.4 µM	4.77 µM	26.4 µM	3.13	16.5 µM	1.91	8.72	3.8	36.9	3.02 µM	10.5 µM	2.93 µM	13.7 µM	1.53 µM	5 µM	9.09 µM	41.4 µM
Cc1ccc2c(c1)CN(C(=O)CCC(=O)OCc1ccccc1)c1ccc(C)cc1CN2C(=O)CCC(=O)OCc1ccccc1	–	> 100 µM	–	> 100 µM	–	> 100 µM	–	> 100 µM	–	> 100	–	> 100	–	> 100 µM	–	> 100 µM	–	> 100 µM	–	> 100 µM
COc1ccccc1Cn1cc2c(c1-c1ccccc1)CCc1cnoc1-2	1.45 µM	6.32 µM	2.02 µM	7.3 µM	3.6 µM	> 100 µM	2.06	17.3 µM	3.96	> 100	0.279	1.44	1.23 µM	4.32 µM	8.56 µM	> 100 µM	3.78 µM	> 100 µM	4.32 µM	> 100 µM
COc1cc2c3c(n(CCNCCCNCCn4c5c(c6cc(OC)c(OC)cc6c4=O)C(=O)c4ccccc4-5)c(=O)c2cc1OC)-c1ccccc1C3=O	> 49 µM	> 100 µM	0.0448 µM	–	0.0523 µM	9.57 µM	1.38	6.52 µM	0.178	2.1	1.02	2.55	0.149 µM	1.17 µM	1.6 µM	20.3 µM	< 0.018 µM	0.614 µM	2.9 µM	21.7 µM
Cc1ccc2c3c(c(=O)[nH]c2c1)C1(C(C#N)=C(N)O3)c2cc(Br)ccc2-c2ccc(Br)cc21	2.22 µM	5.95 µM	2.25 µM	6.06 µM	1.6 µM	3.75 µM	4.23	17 µM	1.7	3.6	2.05	4.7	2.11 µM	4.76 µM	1.72 µM	3.3 µM	4.5 µM	23.7 µM	2.31 µM	6.09 µM
CSc1nc2cc(S(=O)(=O)N3CCCCC3)ccc2s1	–	> 100 µM	–	> 100 µM	–	> 100 µM	–	> 100 µM	–	> 100	–	> 100	–	> 100 µM	–	> 100 µM	–	> 100 µM	–	> 100 µM
Nc1nc(-c2cccc(Cl)c2)c(-c2ccc3ncccc3n2)s1	> 25 µM	> 25 µM	> 25 µM	> 25 µM	22.4 µM	> 25 µM	> 25	> 25 µM	> 25	> 25	> 25	> 25	> 25 µM	> 25 µM	> 25 µM	> 25 µM	> 25 µM	> 25 µM	> 17.2 µM	> 25 µM
N#Cc1cccc(NC(=O)c2cc(-c3ccc(F)cc3F)ccc2O)c1	2.31 µM	8.91 µM	4.73 µM	37.3 µM	2.98 µM	68.6 µM	1.94	7.84 µM	2.01	5.23	2.38	9.32	2.17 µM	11.7 µM	2.11 µM	23 µM	0.675 µM	3.16 µM	3.24 µM	20.1 µM
COC(=O)C12C3C4C1C1C2C3C41NC(=O)c1csc([C@@H](C[C@H](C(C)C)N(C)C(=O)[C@@H](NC(=O)[C@H]2CCCCN2C)C2CC2)OC(C)=O)n1 (stereo partly specified)	0.00773 µM	> 33.3 µM	0.00658 µM	> 33.3 µM	0.0226 µM	> 33.3 µM	0.0253	–	0.0414	10.9	< 0.00333	0.00992	0.0117 µM	0.86 µM	0.5 µM	> 33.3 µM	0.00696 µM	> 33.3 µM	4.39 µM	> 33.3 µM
CCCCN1CSC(=S)N(Cc2ccccc2)C1	–	> 100 µM	–	> 100 µM	–	> 100 µM	–	> 100 µM	–	> 100	–	> 100	–	> 69.8 µM	–	> 100 µM	–	59 µM	–	> 100 µM
Cc1nc(-c2ccccc2)c(-c2ccccc2)s1	–	47.2 µM	–	41.7 µM	–	95.3 µM	–	41.1 µM	–	69.6	–	69.1	–	87.4 µM	–	> 100 µM	–	37.5 µM	–	52.8 µM
Nc1ncn(C2CC(O)C(CO)O2)c(=O)n1 (stereo unspecified)	–	23.5 µM	–	> 375 µM	–	372 µM	–	> 375 µM	–	> 343	–	> 98.3	–	162 µM	–	> 375 µM	–	> 375 µM	–	> 375 µM
CN1C(=O)c2ccccc2NC(=O)C12O[C@@H]2c1cccc(O)c1 (stereo partly specified)	–	> 100 µM	–	> 100 µM	–	> 100 µM	–	> 100 µM	–	> 100	–	> 100	–	> 100 µM	–	> 100 µM	–	> 100 µM	–	> 100 µM
C=C1C(=O)O[C@H]2[C@H]1CC/C(COC(=O)c1cc3ccccc3s1)=C\CC[C@@]1(C)O[C@@H]21	2.89 µM	8.52 µM	0.499 µM	1.84 µM	1.76 µM	3.58 µM	1.75	4.24 µM	1.97	4.35	1.33	2.89	0.446 µM	1.66 µM	2.08 µM	4.57 µM	0.566 µM	4.79 µM	1.55 µM	2.93 µM
COc1cc2c3c(n(C)c(=O)c2cc1OC)-c1cc2c(cc1/C3=C\CNCCCN)OCO2	1.28 µM	6.06 µM	0.376 µM	> 100 µM	0.284 µM	–	0.585	5.31 µM	0.333	2.01	1.02	5.72	1.37 µM	7.66 µM	3.42 µM	36.6 µM	0.414 µM	2.15 µM	0.981 µM	7.47 µM
COc1cc(NS(=O)(=O)c2ccc(-c3cnc(C4CC4)o3)cc2)ccc1F	0.376 µM	23.5 µM	0.268 µM	12.5 µM	0.439 µM	24.6 µM	0.269	14.8 µM	1.36	19.5	0.0498	0.634	0.437 µM	16 µM	2.05 µM	36.2 µM	0.457 µM	39.5 µM	7.88 µM	53.9 µM
